Like-named read-outs stand apart in the source and are kept apart here.
Legend:
[1] = system: human skin inflammation induced by topical 9-cis RA; experiment: Therapeutic effect on 9-cis RA-induced human skin inflammation, clinical pilot trial; assay type: in vivo
Experimental: In the following pilot clinical trial on one healthy volunteer the compounds are applied epicutaneously. 9-cis RA being known for its skin inflammation potential is used in concentrations of 0.1%, 0.3% and 1%. Compound 15 (RXR antagonist) concentration is 1%. The compounds are solved in ethanol/propylene glycol (1:1). 9-cis RA is applied twice daily, 7 days a week, for two consecutive weeks. The site of application is an area of 3×3=9 cm^2 on the abdominal skin. The volume is 0.1 ml per administration. The treatment with compound 15, administered twice daily in a concentration of 1%, is started on day 15 when treatment with 9-cis RA is discontinued. This treatment lasts from day 15 to day 22. For a correct evaluation comparative areas with inflammation induced by 9-cis RA are treated with the vehicle, ethanol/propylene glycol, from day 15 to 22. The post-treatment period lasts until day 28.
The signs and symptoms of skin inflammation are recorded on a 0-4 scale, as described in example 21.
For evaluation of the anti-inflammatory effect of compound 15, the sum of the daily inflammation scores from day 15 to day 28 is determined, as well as the time to complete disappearance of skin inflammation from day 15 on.

[2] = system: NMRI mice; experiment: 2 weeks toxicology study in NMRI mice; assay type: in vivo
Experimental: Oral administration of the RXR agonist compound 1 is tested by daily oral gavage in a 2 weeks toxicology study in NMRI mice. […] This signifies a favourable effect on the lipid profile, which is important in therapy of diabetes and lipid disorders.

[3] = Pharmacokinetics, single dose administration; assay type: in vivo; conditions: plasma; for concentration at 1 h: po, microsuspension in oil, read-out: Plasma level one hour after oral administration
Experimental: Single dose administration: Compound 15 is administered orally as a microsuspension in oil. When measured one hour after oral administration, plasma levels are 480 ng/ml with 20 mg/kg and 2755 ng/ml with 100 mg/kg. There is a dose proportional increase in plasma levels of compound 15 within this dose range.

[4] = Pharmacokinetics, daily oral gavage for 4 weeks in rats; assay type: in vivo
Experimental: Daily administration of compound 15 by oral gavage for 4 weeks in rats: Compound 15 is administered daily by oral gavage as an oily suspension in doses of 50, 250, 500 and 750 mg/kg/day for 4 weeks in rats. Plasma samples are taken 2 hours post dosing on days 1, 22 and 26 and analysed by a gradient HPLC method with UV detection. […] With the 250 mg/kg/day dosage, plasma levels change from 4945 ng/ml on day 1 to 4190 ng/ml on day 22 and to 4530 ng/ml on day 26. Exposure of the rats to compound 15 results in a dose-proportional way in the doses between 50 and 250 mg/kg/day.

[5] = system: myeloperoxidase (MPO) activity; experiment: Semi chronic inflammation of mouse ears, MPO activity; assay type: in vivo, C57BL/6 mice; conditions: 11 d
Experimental: (§1) […] mice of the C57BL/6 strain are used. Inflammation is induced on mouse ears with either AtRA, 9-cis RA or TPA by topical application. Inflammation is measured objectively by determination of the activity of myeloperoxidase (MPO) being directly correlated to the infiltration of polymorphonuclear white blood cells and by the determination of mRNA expression of c-jun, a protein implicated in the AP-1 transduction pathway according to known methods, see e.g. P. L. Stanley et al., Skin Pharmacol. 4, 262-271 (1991) (MPO assay), N. Basset-Sequin et al., J. Invest. Dermatol. 94, 418-422 (1990), F. J. Rauscher et al., Cell 52, 471-480 […], P. Sassone-Corn et al., Nature 326, 507-510 (1987), and M. Pfahl, Endocr. Rev. 14, 651-658, 1993, which are incorporated by reference regarding the experimental method.
In the “acute inflammation” test, mice are treated topically (epicutaneously), orally or intraperitoneally, daily for 4 days. In the “semi chronic inflammation” test, mice are treated topically according to the schedules given below. For each experiment, a group of at least 4 mice of both sexes are used in the defined condition, regarding placebo, vehicle control, compound, topical formulation, oral formulation, dosage and concentration. The topical vehicle consists of ethanol/PEG 400/water (3:1:1).
(§2) The anti-inflammatory effect of topical RXR antagonists is tested by determination of myeloperoxidase activity in % of vehicle controls. The effect of the RXR antagonist compound 15 is also compared with the well known anti-inflammatory effect of the two corticosteroids, clobetasol dipropionate and betamethasone propionate. For induction of inflammation, AtRA and TPA are applied topically to the skin and the administration of the test compounds, the RXR antagonist compound 15 and the two corticosteroids are given in the following order, according to the schedule, described in: Skin Pharmacol 1991; 4 (4): 262-271, Stanley P L. et.al.: RA or TPA is administered on days 0, 2, 4, 7 and 9, compound 15 or corticosteroids are administered twice daily on day 7, day 8 and day 9 and once on day 10 in the morning. The mice are sacrificed on day 10 in the afternoon.

[6] = system: c-Jun mRNA expression; experiment: Semi chronic inflammation of mouse ears, c-Jun mRNA (northern blot); assay type: in vivo, C57BL/6 mice; conditions: TPA 0.005% + test compound 0.05%
Experimental: as §1, §2
In the same experiment, the expression of c-Jun mRNA is determined by northern blot and expressed in percent of the vehicle controls.

[7] = system: normal mice; experiment: 2-weeks toxicity study in normal mice, intraperitoneal; conditions: daily i.p.
[8] = 9-cis RA 0.1% day 1-14, followed by vehicle day 15-22
[9] = 9-cis RA 0.3% day 1-14, followed by vehicle day 15-22
[10] = 9-cis RA 1% day 1-14, followed by vehicle day 15-22
[11] = 9-cis RA 0.1% day 1-14, followed by compound 15 1% day 15-22
[12] = 9-cis RA 0.3% day 1-14, followed by compound 15 1% day 15-22
[13] = 9-cis RA 1% day 1-14, followed by compound 15 1% day 15-22

Structure (SMILES): CC1=C(/C=C/C(C)=C\C=C\C(C)=C\C(=O)O)C(C)(C)CCC1 [9-cis RA, 9-cis retinoic acid, reference compound]
- Sum of daily inflammation scores from day 15 to disappearance of inflammation [1, 8]: 6.5
- Time in days from day 15 to disappearance of inflammation [1, 8]: 8 days
- Sum of daily inflammation scores from day 15 to disappearance of inflammation [1, 9]: 14
- Time in days from day 15 to disappearance of inflammation [1, 9]: 13 days
- Sum of daily inflammation scores from day 15 to disappearance of inflammation [1, 10]: 14.5
- Time in days from day 15 to disappearance of inflammation [1, 10]: 9 days

Structure (SMILES): CC1=C(/C=C/C2=C(/C=C/C(C)=C/C(=O)O)CCCCC2)C(C)(C)CCC1 [Compound 1, (2E,4E)-3-methyl-5-[2-[(E)-2-(2,6,6-trimethyl-1-cyclohexen-1-yl)ethenyl]-1-cyclohepten-1-yl]-2,4-pentadienoic acid]
- Lipid profile (triglycerides, HDL-, LDL-cholesterol) ([2]; all treated groups): tendency to a decrease in triglycerides, an increase in HDL-cholesterol and a decrease in LDL-cholesterol
- Signs or symptoms of the hypervitaminosis A syndrome ([2]; all treated groups): no signs or symptoms of the hypervitaminosis A syndrome
- Tolerability, oral ([2]; daily oral gavage, 2 weeks, up to 400 mg/kg/day): very well tolerated
- Tolerability, intraperitoneal ([2]; intraperitoneally, 200 mg/kg/day): well tolerated
- Body weight, intraperitoneal ([2]; intraperitoneally, 400 mg/kg/day): retarded body weight increase

Structure (SMILES): CCCCOc1c(\C(C)=C/C=C/C(C)=C/C(=O)O)cc(C(C)(C)C)cc1C(C)(C)C [Compound 15, (2E,4E,6Z)-7-[2-butoxy-3,5-bis(1,1-dimethylethyl)phenyl]-3-methyl-2,4,6-octatrienoic acid]
- concentration at 1 h ([3]; single dose 20 mg/kg): 480 ng/mL
- concentration at 1 h ([3]; single dose 100 mg/kg): 2760 ng/mL
- bioavailability ([3]; at the mentioned low doses, intravenous versus oral PK data): 40%
- Plasma level 2 hours post dosing ([4]; 50 mg/kg/day, day 1): 2205 ng/mL
- Plasma level 2 hours post dosing ([4]; 50 mg/kg/day, day 22): 2235 ng/mL
- Plasma level 2 hours post dosing ([4]; 50 mg/kg/day, day 26): 2505 ng/mL
- Plasma level 2 hours post dosing ([4]; 250 mg/kg/day, day 1): 4945 ng/mL
- Plasma level 2 hours post dosing ([4]; 250 mg/kg/day, day 22): 4190 ng/mL
- Plasma level 2 hours post dosing ([4]; 250 mg/kg/day, day 26): 4530 ng/mL
- MPO activity (% vehicle treated mice) ([5]; At RA 0.05% + test compound 0.05% topical): 184 ± 72 % vehicle treated mice
- MPO activity (% vehicle treated mice) ([5]; TPA 0.005% + test compound 0.05% topical): 345 ± 81 % vehicle treated mice
- c-Jun mRNA expression (% of vehicle treated mice) [6]: 88 % of vehicle treated mice
- Sum of daily inflammation scores from day 15 to disappearance of inflammation [1, 11]: 2.5
- Time in days from day 15 to disappearance of inflammation [1, 11]: 3 days
- Sum of daily inflammation scores from day 15 to disappearance of inflammation [1, 12]: 5.5
- Time in days from day 15 to disappearance of inflammation [1, 12]: 6 days
- Sum of daily inflammation scores from day 15 to disappearance of inflammation [1, 13]: 11
- Time in days from day 15 to disappearance of inflammation [1, 13]: 8 days
- Signs or symptoms of hypervitaminosis A [7]: no signs or symptoms of hypervitaminosis A on skin, mucous membranes or bones with the exception of hair loss
- Tolerability, intraperitoneal ([7]; doses up to 400 mg/kg): well tolerated
